Laboratory results reported in paper PMC9814781, “Structure-based design of a dual-warhead covalent inhibitor of FGFR4” (Communications Chemistry, 2022).

Experiments:
[1] = target: CDK2/CycA2 (Homo sapiens, UniProt P24941); experiment: Kinase selectivity profiling
[2] = target: EGFR (Homo sapiens, UniProt P00533); experiment: Kinase selectivity profiling
[3] = target: HIPK2 (Homo sapiens, UniProt Q9H2X6); experiment: Kinase selectivity profiling
[4] = target: DYRK1B (Homo sapiens, UniProt Q9Y463); experiment: Kinase selectivity profiling
[5] = target: FES (Homo sapiens, UniProt P07332); experiment: Kinase selectivity profiling
[6] = target: FLT1 (VEGFR1) (Homo sapiens, UniProt P17948); experiment: Kinase selectivity profiling
[7] = target: CK1α(CSNK1A1) (Homo sapiens, UniProt P48729); experiment: Kinase selectivity profiling
[8] = target: JNK3 (Homo sapiens, UniProt P53779); experiment: Kinase selectivity profiling
[9] = target: RSK3 (Homo sapiens, UniProt Q15349); experiment: Kinase selectivity profiling
[10] = target: FLT3 (Homo sapiens, UniProt P36888); experiment: Kinase selectivity profiling
[11] = target: PDGFRa (Homo sapiens, UniProt P16234); experiment: Kinase selectivity profiling
[12] = target: ROCK2 (Homo sapiens, UniProt O75116); experiment: Kinase selectivity profiling
[13] = target: CDK16/CycY (Homo sapiens, UniProt Q00536); experiment: Kinase selectivity profiling
[14] = target: DCAMKL1 (Homo sapiens, UniProt O15075); experiment: Kinase selectivity profiling
[15] = target: KIT (Homo sapiens, UniProt P10721); experiment: Kinase selectivity profiling
[16] = target: INSR (Homo sapiens, UniProt P06213); experiment: Kinase selectivity profiling
[17] = target: JNK1 (Homo sapiens, UniProt P45983); experiment: Kinase selectivity profiling
[18] = target: CHK2 (Homo sapiens, UniProt O96017); experiment: Kinase selectivity profiling
[19] = target: JAK3 (Homo sapiens, UniProt P52333); experiment: Kinase selectivity profiling
[20] = target: JAK2 (Homo sapiens, UniProt O60674); experiment: Kinase selectivity profiling
[21] = target: NEK9 (Homo sapiens, UniProt Q8TD19); experiment: Kinase selectivity profiling
[22] = target: JAK1 (Homo sapiens, UniProt P23458); experiment: Kinase selectivity profiling
[23] = target: FGFR1 (Homo sapiens, UniProt P11362); experiment: Kinase inhibition assay (ADP-Glo); type: biochemical; parameters: human FGFR1 (residues 456–765); 6xHis + PreScission site (N, cleaved yes); made in house; host or cells: Escherichia coli Rosseta
Description: Wild-type FGFRs and mutant FGFRs were prepared as previously described[25]–[27]. In brief, the kinase domains of human FGFR1 (residues 456–765), FGFR2 (residues 453–770), FGFR3 (residues 450–758), and FGFR4 (residues 445–753) were cloned into a modified pET28a expression vector and then transfected into Escherichia coli Rosseta cells. The N-terminal of the recombinant proteins were contained a 6xHis tag followed by a PreScission cleavage site for FGFR1, FGFR2, FGFR3, and FGFR4. Site-directed mutagenesis of FGFR4 was generated according to the ClonExpress II One Step Cloning Kit (Vazyme) using the pET28a-FGFR4 plasmid as the template. These mutants were confirmed by DNA sequencing (Tsingke, Changsha, China). For crystallization experiments, the wild-type FGFR4 plasmid was co-expressed with untagged YOPH to obtain non-phosphorylated proteins. The proteins were first purified by Ni-NTA affinity chromatography. […]
All kinase inhibition assays were performed with optimized kinase assay buffer consisting of 40 mM Tris-HCl pH 7.5, 20 mM MgCl2, 20 mM NaCl, 0.1 mg/mL BSA, 1 mM TCEP, and 4% DMSO. […] Fluorescence was measured on a multimode plate reader (Perkin-Elmer) using a chemiluminescence program after the addition of the detection reagent. IC50 values were determined using a three-parameter log [Inhibitor] versus response model in GraphPad Prism software.

[24] = target: CDK9/CycK (Homo sapiens, UniProt P50750); experiment: Kinase selectivity profiling
[25] = target: TTK (Homo sapiens, UniProt P33981); experiment: Kinase selectivity profiling
[26] = target: FER (Homo sapiens, UniProt P16591); experiment: Kinase selectivity profiling
[27] = target: NPM1-ALK (Homo sapiens, UniProt P06748+Q9UM73); experiment: Kinase selectivity profiling
[28] = target: ALK (Homo sapiens, UniProt Q9UM73); experiment: Kinase selectivity profiling

Sequence of JNK1 (P45983 whole entry): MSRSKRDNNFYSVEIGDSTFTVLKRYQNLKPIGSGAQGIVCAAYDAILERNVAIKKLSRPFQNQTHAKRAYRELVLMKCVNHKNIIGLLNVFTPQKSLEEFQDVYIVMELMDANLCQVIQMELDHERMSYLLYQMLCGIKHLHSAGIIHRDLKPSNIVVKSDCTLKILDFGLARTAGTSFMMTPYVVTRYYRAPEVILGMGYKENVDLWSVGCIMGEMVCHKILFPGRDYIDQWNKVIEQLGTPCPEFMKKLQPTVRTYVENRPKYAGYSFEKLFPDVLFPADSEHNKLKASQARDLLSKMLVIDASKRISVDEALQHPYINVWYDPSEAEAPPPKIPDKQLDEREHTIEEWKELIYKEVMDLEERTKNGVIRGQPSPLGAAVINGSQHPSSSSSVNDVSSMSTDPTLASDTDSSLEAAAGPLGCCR
Sequence of FGFR1 (P11362 456-765): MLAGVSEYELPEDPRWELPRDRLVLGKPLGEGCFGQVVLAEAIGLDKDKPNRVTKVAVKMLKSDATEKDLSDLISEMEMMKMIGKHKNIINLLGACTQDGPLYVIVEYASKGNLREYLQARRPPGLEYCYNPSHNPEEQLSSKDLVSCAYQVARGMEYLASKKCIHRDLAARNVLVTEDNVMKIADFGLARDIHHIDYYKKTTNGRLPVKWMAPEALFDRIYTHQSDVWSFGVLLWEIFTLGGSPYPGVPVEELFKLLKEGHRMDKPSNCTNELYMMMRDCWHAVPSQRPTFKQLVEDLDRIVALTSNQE
Sequence of HIPK2 (Q9H2X6 whole entry): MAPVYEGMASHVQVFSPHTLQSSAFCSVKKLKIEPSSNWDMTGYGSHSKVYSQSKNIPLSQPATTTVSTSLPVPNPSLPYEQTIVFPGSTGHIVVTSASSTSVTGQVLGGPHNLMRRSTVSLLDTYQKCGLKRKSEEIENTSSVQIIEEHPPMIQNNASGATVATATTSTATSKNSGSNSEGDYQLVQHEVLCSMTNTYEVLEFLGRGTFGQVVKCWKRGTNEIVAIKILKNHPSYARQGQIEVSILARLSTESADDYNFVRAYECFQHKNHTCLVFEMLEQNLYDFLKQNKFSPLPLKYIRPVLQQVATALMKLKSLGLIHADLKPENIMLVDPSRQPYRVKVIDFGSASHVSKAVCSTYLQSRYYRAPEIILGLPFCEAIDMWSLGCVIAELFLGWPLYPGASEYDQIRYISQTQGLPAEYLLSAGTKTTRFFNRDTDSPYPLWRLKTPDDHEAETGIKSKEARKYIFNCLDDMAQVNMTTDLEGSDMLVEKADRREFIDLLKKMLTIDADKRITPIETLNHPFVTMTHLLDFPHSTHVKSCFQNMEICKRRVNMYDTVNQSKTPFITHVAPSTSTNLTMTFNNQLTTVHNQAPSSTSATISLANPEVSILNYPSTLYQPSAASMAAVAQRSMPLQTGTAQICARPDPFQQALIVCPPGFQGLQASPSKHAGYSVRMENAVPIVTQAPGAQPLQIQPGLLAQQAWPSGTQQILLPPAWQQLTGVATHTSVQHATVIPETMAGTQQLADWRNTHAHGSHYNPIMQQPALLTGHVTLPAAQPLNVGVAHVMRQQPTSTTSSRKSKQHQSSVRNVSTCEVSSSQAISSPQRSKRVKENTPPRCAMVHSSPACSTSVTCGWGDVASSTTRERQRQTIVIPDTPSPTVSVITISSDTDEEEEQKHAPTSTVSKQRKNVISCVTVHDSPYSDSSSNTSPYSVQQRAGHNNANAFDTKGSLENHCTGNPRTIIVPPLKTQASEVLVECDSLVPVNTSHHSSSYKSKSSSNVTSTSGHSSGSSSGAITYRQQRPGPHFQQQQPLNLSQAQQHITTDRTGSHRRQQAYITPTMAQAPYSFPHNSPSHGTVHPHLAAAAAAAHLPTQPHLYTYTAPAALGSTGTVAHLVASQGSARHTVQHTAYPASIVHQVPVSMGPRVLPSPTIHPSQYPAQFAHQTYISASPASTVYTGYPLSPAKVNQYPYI
Sequence of CDK16/CycY (Q00536 whole entry): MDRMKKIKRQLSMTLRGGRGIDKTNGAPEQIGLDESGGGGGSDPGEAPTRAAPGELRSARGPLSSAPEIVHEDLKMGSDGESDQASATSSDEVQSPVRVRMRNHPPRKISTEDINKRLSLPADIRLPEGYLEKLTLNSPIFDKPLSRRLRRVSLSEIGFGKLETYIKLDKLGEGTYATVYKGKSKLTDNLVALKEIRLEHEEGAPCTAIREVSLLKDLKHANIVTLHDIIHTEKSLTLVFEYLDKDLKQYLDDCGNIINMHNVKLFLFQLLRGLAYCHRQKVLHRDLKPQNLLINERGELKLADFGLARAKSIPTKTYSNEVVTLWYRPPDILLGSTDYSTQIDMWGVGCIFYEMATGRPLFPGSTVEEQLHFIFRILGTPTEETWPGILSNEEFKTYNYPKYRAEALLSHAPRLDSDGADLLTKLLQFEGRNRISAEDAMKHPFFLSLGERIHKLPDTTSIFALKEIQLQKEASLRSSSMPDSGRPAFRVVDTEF
Sequence of CDK16/CycY (Q8ND76 whole entry partner): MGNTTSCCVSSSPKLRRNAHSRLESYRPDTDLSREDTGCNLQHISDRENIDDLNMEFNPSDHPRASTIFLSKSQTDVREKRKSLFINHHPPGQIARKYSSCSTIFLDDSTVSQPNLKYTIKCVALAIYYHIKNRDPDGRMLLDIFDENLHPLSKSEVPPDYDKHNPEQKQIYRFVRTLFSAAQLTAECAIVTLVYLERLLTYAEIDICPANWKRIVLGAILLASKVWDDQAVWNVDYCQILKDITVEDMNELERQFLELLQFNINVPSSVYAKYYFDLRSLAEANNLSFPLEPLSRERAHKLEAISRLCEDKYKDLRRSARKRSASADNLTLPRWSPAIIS
Sequence of DYRK1B (Q9Y463 whole entry): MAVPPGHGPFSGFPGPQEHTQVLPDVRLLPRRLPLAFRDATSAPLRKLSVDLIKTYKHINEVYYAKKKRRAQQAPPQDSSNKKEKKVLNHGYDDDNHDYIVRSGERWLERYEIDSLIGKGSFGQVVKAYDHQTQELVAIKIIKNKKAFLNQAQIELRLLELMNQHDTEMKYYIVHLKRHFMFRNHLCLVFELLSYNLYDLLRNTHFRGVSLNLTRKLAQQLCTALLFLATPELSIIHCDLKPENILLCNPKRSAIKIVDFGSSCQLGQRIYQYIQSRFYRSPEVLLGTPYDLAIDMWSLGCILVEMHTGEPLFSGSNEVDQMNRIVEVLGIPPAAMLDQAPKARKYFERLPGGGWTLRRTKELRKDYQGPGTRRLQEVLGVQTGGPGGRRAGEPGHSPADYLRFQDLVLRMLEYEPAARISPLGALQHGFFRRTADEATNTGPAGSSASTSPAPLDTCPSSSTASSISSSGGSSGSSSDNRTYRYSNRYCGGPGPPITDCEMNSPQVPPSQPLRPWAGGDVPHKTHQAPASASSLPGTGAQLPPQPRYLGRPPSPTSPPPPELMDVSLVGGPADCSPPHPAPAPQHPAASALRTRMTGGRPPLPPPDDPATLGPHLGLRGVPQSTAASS
Sequence of CDK9/CycK (P50750 whole entry): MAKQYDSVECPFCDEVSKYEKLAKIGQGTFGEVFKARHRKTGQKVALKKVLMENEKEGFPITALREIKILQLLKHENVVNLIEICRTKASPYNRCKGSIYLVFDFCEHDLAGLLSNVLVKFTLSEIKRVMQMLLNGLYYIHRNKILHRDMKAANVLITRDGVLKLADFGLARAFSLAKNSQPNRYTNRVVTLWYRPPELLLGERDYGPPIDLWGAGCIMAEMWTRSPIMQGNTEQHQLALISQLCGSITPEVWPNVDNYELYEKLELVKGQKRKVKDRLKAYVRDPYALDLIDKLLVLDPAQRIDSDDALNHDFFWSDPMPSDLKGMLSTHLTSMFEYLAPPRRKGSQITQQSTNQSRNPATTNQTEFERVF
Sequence of CDK9/CycK (O75909 whole entry partner): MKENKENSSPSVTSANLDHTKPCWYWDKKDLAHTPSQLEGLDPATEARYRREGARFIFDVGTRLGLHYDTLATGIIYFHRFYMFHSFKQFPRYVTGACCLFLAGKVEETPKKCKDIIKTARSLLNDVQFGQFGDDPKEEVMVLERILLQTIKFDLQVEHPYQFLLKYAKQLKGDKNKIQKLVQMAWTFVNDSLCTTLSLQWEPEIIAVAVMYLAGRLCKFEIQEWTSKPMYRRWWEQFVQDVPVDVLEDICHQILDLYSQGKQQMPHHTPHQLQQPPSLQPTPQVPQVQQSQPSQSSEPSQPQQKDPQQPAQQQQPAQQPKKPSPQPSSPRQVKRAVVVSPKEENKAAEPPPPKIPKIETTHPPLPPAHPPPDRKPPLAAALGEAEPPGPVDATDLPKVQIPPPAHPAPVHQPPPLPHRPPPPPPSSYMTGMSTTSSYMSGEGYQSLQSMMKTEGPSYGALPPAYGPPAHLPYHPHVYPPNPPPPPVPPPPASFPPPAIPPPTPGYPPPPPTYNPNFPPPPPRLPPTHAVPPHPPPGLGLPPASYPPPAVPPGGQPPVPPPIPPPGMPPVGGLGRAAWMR
Sequence of JNK3 (P53779 whole entry): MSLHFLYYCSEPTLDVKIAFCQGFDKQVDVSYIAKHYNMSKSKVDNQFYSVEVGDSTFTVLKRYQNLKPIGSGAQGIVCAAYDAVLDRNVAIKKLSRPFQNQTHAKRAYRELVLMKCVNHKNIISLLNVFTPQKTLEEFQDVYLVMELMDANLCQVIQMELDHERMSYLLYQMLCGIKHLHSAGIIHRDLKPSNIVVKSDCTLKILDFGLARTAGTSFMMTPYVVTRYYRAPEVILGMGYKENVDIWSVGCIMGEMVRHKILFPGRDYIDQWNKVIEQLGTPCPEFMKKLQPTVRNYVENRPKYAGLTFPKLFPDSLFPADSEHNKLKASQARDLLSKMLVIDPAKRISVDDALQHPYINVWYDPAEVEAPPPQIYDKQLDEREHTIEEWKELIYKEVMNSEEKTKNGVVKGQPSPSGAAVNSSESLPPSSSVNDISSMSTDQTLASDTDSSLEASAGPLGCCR

In the case of C=CC(=O)Nc1ccccc1Nc1ncc2c(n1)N(CCCN1CCN(C(=O)C=C)CC1)C(=O)N(c1cc(OC)cc(OC)c1)C2 [CXF-009], the inhibition at 1 µM [1] is reported as -2.58%, the inhibition at 1 µM [2] is reported as -16.3% and the inhibition at 1 µM [3] is reported as -5.04%. It also gave an inhibition at 1 µM [4] of 0.62%, an inhibition at 1 µM [5] of -7.81% and an inhibition at 1 µM [6] of 5.91%. For the same compound, the inhibition at 1 µM [7] was 2.6%, the inhibition at 1 µM [8] was -3.67% and the inhibition at 1 µM [9] was 7.58%. The inhibition at 1 µM [10] was -1.11%, the inhibition at 1 µM [11] was -0.91% and the inhibition at 1 µM [12] was -2.53%. The inhibition at 1 µM [13] was -7.9%, the inhibition at 1 µM [14] was 13.4% and the inhibition at 1 µM [15] was -14.3%. The inhibition at 1 µM [16] was 0.8%, the inhibition at 1 µM [17] was -4.4% and the inhibition at 1 µM [18] was -3.02%. For the same compound, the inhibition at 1 µM [19] was 1.94%, the inhibition at 1 µM [20] was 0.56% and the inhibition at 1 µM [21] was 5.11%. It also gave an inhibition at 1 µM [22] of -12.3%, an IC50 [23] of 2580 nM and an inhibition at 1 µM [24] of 0.11%. The inhibition at 1 µM [25] was 6.62%, the inhibition at 1 µM [26] was 37.1% and the inhibition at 1 µM [27] was 0.37%. The inhibition at 1 µM [28] was 7.28%.
